Data as given in patent US6566140B2, “Inhibition of coagulation in blood and blood products” (University of Vermont and State Agriculture College, priority 1998, dated 2003).

Tests used:
[1] = tested on: tissue factor initiated clotting of recalcified citrated plasma; assay: extended plasma prothrombin time (XpPT) assay; format: biochemical, human; conditions: for clot time of patient plasma: patients on Coumadin therapy, 0.5 nM TF, 100 μg/ml CTI; for XpPT clot time of patient plasma (s.e.m.): patients on moderate Coumadin therapy, 0.5 nM tissue factor
Experimental: The result was a standard system of coagulation evaluation in which a plasma sample collected in 11 mM trisodium citrate was frozen (standard pathology laboratory collection system) defrosted in the presence of 100 μgm/ml corn trypsin inhibitor (final concentration) and the assay ultimately conducted described in Materials and Methods section below. The final concentrations in the tissue factor clotting sample included 100 μgm/ml CTI 30 mM CaCl2, 50 μM 75% PC:25PS vesicles and 0.5 nM tissue factor. This system is referred to as the XpPT assay.
To study the effects of heparin, 0-3 U/mL (10,000 u/mL stock) were titrated into normal, CTI (100 μg/mL), citrated plasma. Into reaction cuvettes, […] of plasma, 10 μL of 300 mM CaCl2 (final, 30 mM) and […] of 3.72 mM PCPS (final concentration, 50 μM) were added. Appropriate volumes of heparin (10,000 U/mL) were added to give 0.25, 0.5, 1.0, 1.5, 2.0, and 3.0 U/mL final concentration in 100 μL plasma. The reaction was initiated by adding 10 μL of 5 nM rTF (0.5 nM final concentration).
The assay was used along lines discussed previously except that TFPI was added (50 μg/mL stock) at 5.0, 10.0, 20.0, 60 nM final concentration and initiating with 10 μL of 5.0 nM rTF (0.5 nM).
Citrated platelet poor plasma (PPP) from a normal pool, patient cohorts, or factor V, VII, VIII and IX deficient pools was treated with 3.7 μL of 2.72 mg/mL (100 μg/mL final concentration) corn trypsin inhibitor (CTI) prior to thawing at 37° C. The thawed plasma was spun at 16,000×g (Eppendorf model 5415-C bench top centrifuge) for 10 minutes. Clot times were done by either a manual, tilt-tube method or using a Stago ST-4 detector. (Results were equivalent with each method.) For both methods test tubes made of clear polystyrene or similar clear plastic were used.
Reaction cuvettes for the ST4 clot detector were equilibrated to 37° C. (3 minutes) in the appropriate incubation chambers. Calcium equilibration was started by adding 10 μL of 300 mM CaCl2 (final, 30 mM) to 100 μL of the CTI treated citrated PPP (normal, patient or deficient) for 15 seconds followed by 1.3 μL of 3.72 mM PCPS (25:75 PC/PS) (final concentration, 50 μM) 15 seconds. The reaction was initiated by adding 10 μL of 5.0 nM rTF (final 0.5 nM TF) or 2.5 μL of 0.5 nM rTF (12.5 pM final). End point clot times were determined visually or mechanically on the ST4 using the PTT mode, no incubation, with an upper end timing limit of 999 seconds.

[2] = tested on: tissue factor initiated clotting of platelet poor plasma; assay: plasma clotting assay using CTI (Example 3); format: biochemical, human; conditions: patients on stabilized coumadin therapy
Experimental: Blood was drawn directly into sterile buffered 3.8% sodium citrate tubes (Vacutainer brand, product # L10318-00, Becton-Dickinson and Co.), and the tubes were centrifuged at 4227 RCF for 3 minutes (Baxter Stat 60 bench top centrifuge). The supernatant was decanted and an automated PT was established for each patient sample. Platelet poor samples were isolated by further centrifugation for 10 minutes at 14,000 rpm, and the top two-thirds of the plasma was transferred to a Sarstedt rectic cup where it was stored for subsequent analysis at −80° C. Prior to thawing, CTI (stock concentration 1-5 mg/mL) was layered onto the frozen sample in an amount sufficient to give a final concentration of 100 μg CTI/mL plasma. Such citrated plasma containing CTI was used within 0-2 hours (stored at 2-8° C.).
Platelet poor plasma collected as described in Example 1 or 2 from either patients or normal donors, was delivered (100 μL) into a 12×75 mm disposable polystryrene tube (VWR Scientific, product #60818-361). Calcium chloride (10 μL, 300 mM CaCl2) was added, followed immediately by an amount of concentrated PSPC (prepared as described above, typical stock concentration ˜1-5 mM in HBS, pH 7.4) so that the final concentration of lipid in the mixture was […]. To initiate the reaction at zero time, 20 μL of stock tissue factor reagent (described below) was added to a final TF concentration of 1 nM. […]

## CC(=O)CC(c1ccccc1)c1c(O)c2ccccc2oc1=O (stereo not drawn) [Coumadin]
[1]; INR of 2, normal 82±6s
  clot time of patient plasma: 211 ± 8 s
[1]; INR of 4.3
  clot time of patient plasma: 616 ± 9 s
  XpPT clot time of patient plasma (s.e.m.): 610.8 ± 4.2 s
[1]; INR of 2.0, normal 82.5±0.63 seconds
  XpPT clot time of patient plasma (s.e.m.): 212.6 ± 2.2 s
[2]; INR of 2.0, normal (INR 1) 60-75 seconds
  clot time of patient plasma: 215 to 240 s
[2]; INR of 5.0
  clot time of patient plasma: 700 to 800 s
